Source: US9211261B2, “Immediate release dosage forms containing solid drug dispersions” (Bend Research, Inc., priority 2002, dated 2015)

Test: In vitro dissolution test of Drug 1 from tablets (simulated intestinal buffer pH 6.8 with 0.5 wt % sodium lauryl sulfate)
Format: physicochemical
Settings: 120 mgA tablet of Example 2, 900 mL pH 6.8 buffer + 0.5 wt % SLS, 37° C., 100 rpm, average of two tests
Procedure: An in vitro test may be used to determine whether a dosage form provides a release profile within the scope of the present invention. In vitro tests are well known in the art. One example is a so-called “direct” test, where the dosage form is placed into a stirred USP type 2 dissoette flask containing 900 mL of a dissolution medium maintained at 37° C., such as a buffer solution simulating a gastric environment (10 mM HCl, 100 mM NaCl, pH 2.0, 261 mOsm/kg) or the PBS or MFD solutions previously described. One skilled in the art will understand that in such tests the dissolution medium should act as a sink for the drug in the dosage form. By “sink” is meant that the composition and volume of the dissolution medium is sufficient such that substantially all of the drug in the dosage form will dissolve into the dissolution medium within about 4 hours or less. In some cases a surfactant, such as sodium lauryl sulfate or other excipients may be added to the dissolution medium to ensure the dissolution medium acts as a sink for the drug. The dosage form is placed in a wire support to keep the dosage form off of the bottom of the flask, so that all of its surfaces are exposed to the dissolution medium, and the medium is stirred using paddles that rotate at a rate of 50 rpm. Samples of the dissolution medium are taken at periodic intervals using a VanKel VK8000 autosampling dissoette with automatic receptor solution replacement. The concentration of dissolved drug in the dissolution medium is then determined by High Performance Liquid Chromatography (HPLC), by comparing UV absorbance of samples to the absorbance of drug standards. The mass of dissolved drug in the dissolution medium is then calculated from the concentration of drug in the medium and the volume of the medium, which value is used to calculate the actual amount of drug released from the dosage form, taking into consideration the mass of drug originally present in the dosage form.
Drug 1 dissolution from the tablets of Example 2 was measured using an in vitro test. First, a dissolution medium consisting of a simulated intestinal buffer solution was made by dissolving 6.8 g of KH2PO4 in 750 mL of deionized water with 85 mL 0.2M NaOH. Water was added for a final volume of 1 L. The pH was adjusted to 6.8±0.1 using 0.2M NaOH. Next, 0.5 wt % sodium lauryl sulfate was added to the buffer. A 900 mL sample of this solution was added to each of two vessels in a VanKel dissolution testing apparatus with automatic sampling. The solution temperature was maintained at 37° C., and stirred with a paddle speed of 100 rpm. This dissolution medium acted as a sink for the 120 mgA tablets. After equilibration to 37° C., a tablet of Example 2 was added to each vessel containing the buffer solution, resulting in a Drug 1 concentration of 130 μgA/mL, assuming all of the drug had dissolved. Samples were collected at 5, 15, 20, 35, 45, 60, 75, 90, 120 and 180 minutes, and then analyzed by HPLC using a Waters Symmetry C8 column. The mobile phase consisted of 0.2 vol % H3PO4 (in water)/methanol in the ratio of 15/85 (vol/vol). Drug 1 concentration was calculated by comparing UV absorbance at 256 nm to the absorbance of Drug 1 standards.

SMILES: CCOC(=O)N1c2ccc(C(F)(F)F)cc2C(N(Cc2cc(C(F)(F)F)cc(C(F)(F)F)c2)C(=O)OC)CC1CC (stereo not shown) [Drug 1, 4-[(3,5-bis-trifluoromethyl-benzyl)-methoxycarbonyl-amino]-2-ethyl-6-trifluoromethyl-3,4-dihydro-2H-quinoline-1-carboxylic acid ethyl ester]
- Drug 1 Concentration (time 0 min): 0 μgA/mL
- Drug 1 Released (time 0 min): 0 wt %
- Drug 1 Concentration (time 5 min): 49 μgA/mL
- Drug 1 Released (time 5 min): 37 wt %
- Drug 1 Concentration (time 15 min): 114 μgA/mL
- Drug 1 Released (time 15 min): 87 wt %
- Drug 1 Concentration (time 20 min): 123 μgA/mL
- Drug 1 Released (time 20 min): 94 wt %
- Drug 1 Concentration (time 35 min): 126 μgA/mL
- Drug 1 Released (time 35 min): 96 wt %
- Drug 1 Concentration (time 45 min): 126 μgA/mL
- Drug 1 Released (time 45 min): 96 wt %
- Drug 1 Concentration (time 60 min): 125 μgA/mL
- Drug 1 Released (time 60 min): 95 wt %
- Drug 1 Concentration (time 75 min): 128 μgA/mL
- Drug 1 Released (time 75 min): 98 wt %
- Drug 1 Concentration (time 90 min): 127 μgA/mL
- Drug 1 Released (time 90 min): 97 wt %
- Drug 1 Concentration (time 120 min): 127 μgA/mL
- Drug 1 Released (time 120 min): 97 wt %
- Drug 1 Concentration (time 180 min): 131 μgA/mL
- Drug 1 Released (time 180 min): 100 wt %
